One assay has as its target T1, GST-RORγ (Homo sapiens, UniProt P51449).
T1 construct: 1 μg of GST-RORγ-LBD, 5 nM of [3H]T1317 as radioligand
T1 sequence (P51449 269-508 limits assumed): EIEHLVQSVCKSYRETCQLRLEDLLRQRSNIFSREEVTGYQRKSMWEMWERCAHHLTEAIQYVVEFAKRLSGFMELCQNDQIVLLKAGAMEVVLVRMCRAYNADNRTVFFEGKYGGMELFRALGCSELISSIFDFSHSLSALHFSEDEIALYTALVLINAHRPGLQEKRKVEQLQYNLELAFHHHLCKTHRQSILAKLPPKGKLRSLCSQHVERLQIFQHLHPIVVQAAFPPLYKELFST
Put plainly: RORγ scintillation proximity (SPA) radioligand binding assay, displacement of [3H]-T0901317. The conditions noted are these: read-out: RORγ SPA % bound = % radiolabel bound; for remaining activity at 10 µM: 10 μM compound; for remaining activity at 1 µM: 1 μM compound (Table 2D). In general terms: In a scintillation proximity assay essentially only radioactivity close to the scintillant gives light.

Another assay deals with T2, RORγ (Homo sapiens, UniProt P51449).
T2 construct: expressed in transfected cells; host or cells: HEK293T
T2 sequence (P51449 269-508 limits assumed): T1 sequence (P51449 269-508 limits assumed)
Put plainly: Gal4-RORγ LBD / UAS luciferase cotransfection assay. To be noted: 10 μM. The assay is classed as cell-based.

A further assay has as its system VP16. The experiment in a line: Gal4 DBD-VP16 / UAS luciferase control assay. It is filed as cell-based. To be noted: 10 μM.

From US9586928B2 (The Scripps Research Institute, priority 2011, dated 2017) come the findings set out here.

Protocol for VP16: The cells were treated with either DMSO or various compounds as indicated four hours after replating. Following additional 20 hour incubation, luciferase levels were assayed by one-step addition of 20 μL BriteLite (Perkin Elmer) and read using an Envision multilabel plate reader (Perkin Elmer).

Turning to `OC(c1ccc(-c2ccc(CN3CCN(Cc4ccncc4)CC3)cc2)cc1F)(C(F)(F)F)C(F)(F)F` [Compound 105, 1,1,1,3,3,3-Hexafluoro-2-(3-fluoro-4′-((4-(pyridin-4-ylmethyl)piperazin-1-yl)methyl)-[1,1′-biphenyl]-4-yl)propan-2-ol], on GST-RORγ, the remaining activity at 10 µM is 80%.
The same measure, in the same setting: in the case of `COc1cc(-c2ccc(CN3CCN(Cc4ccncc4)CC3)cc2)ccc1C(O)(C(F)(F)F)C(F)(F)F` [Compound 106, 1,1,1,3,3,3-Hexafluoro-2-(3-methoxy-4′-((4-(pyridin-4-ylmethyl)piperazin-1-yl)methyl)-[1,1′-biphenyl]-4-yl)propan-2-ol] it was 40%; in that of `Cc1cc(-c2ccc(CN3CCN(Cc4ccncc4)CC3)cc2)ccc1C(O)(C(F)(F)F)C(F)(F)F` [Compound 107, 1,1,1,3,3,3-Hexafluoro-2-(3-methyl-4′-((4-(pyridin-4-ylmethyl)piperazin-1-yl)methyl)-[1,1′-biphenyl]-4-yl)propan-2-ol], 100%.
On the same count and under the same terms, the same measure for `OC(c1ccc(-c2ccc(CN3CCN(Cc4c[nH]cn4)CC3)cc2)cc1)(C(F)(F)F)C(F)(F)F` [Compound 112, 2-(4′-((4-((1H-Imidazol-5-yl)methyl)piperazin-1-yl)methyl)-[1,1′-biphenyl]-4-yl)-1,1,1,3,3,3-hexafluoropropan-2-ol]: 48%; for `CC1CN(Cc2ccc(-c3ccc(C(O)(C(F)(F)F)C(F)(F)F)cc3)cc2)CCN1Cc1ccncc1` (stereo not shown) [Compound 117]: 20%; for `CC1CN(Cc2ccncc2)CCN1Cc1ccc(-c2ccc(C(O)(C(F)(F)F)C(F)(F)F)cc2)cc1` (stereo not shown) [Compound 118]: 20%.
With `O=C1CN(Cc2ccc(-c3ccc(C(O)(C(F)(F)F)C(F)(F)F)cc3)cc2)CCN1Cc1ccncc1` [Compound 119], at GST-RORγ, the remaining activity at 10 µM came to 15%.
The same measure, in the same setting: the same measure for `O=C1CN(Cc2ccncc2)CCN1Cc1ccc(-c2ccc(C(O)(C(F)(F)F)C(F)(F)F)cc2)cc1` [Compound 120]: 15%.
In the case of `O=C(Nc1ccc(-c2ccc(C(O)(C(F)(F)F)C(F)(F)F)cc2)cc1)N1CCN(Cc2ccncc2)CC1` [Compound 136, N-(4′-(1,1,1,3,3,3-hexafluoro-2-hydroxypropan-2-yl)-[1,1′-biphenyl]-4-yl)-4-(pyridin-4-ylmethyl)piperazine-1-carboxamide], on GST-RORγ, the remaining activity at 1 µM turned out to be 76%.
On the same count and under the same terms, in the case of `O=C(Cc1ccc(-c2ccc(C(O)(C(F)(F)F)C(F)(F)F)cc2)cc1)N1CCN(Cc2ccncc2)CC1` [Compound 137, 2-(4′-(1,1,1,3,3,3-hexafluoro-2-hydroxypropan-2-yl)-[1,1′-biphenyl]-4-yl)-1-(4-(pyridin-4-ylmethyl)piperazin-1-yl)ethanone] it was 81%.
In the case of `O=S(=O)(c1ccc(-c2ccc(C(O)(C(F)(F)F)C(F)(F)F)cc2)cc1)N1CCN(Cc2ccncc2)CC1` [Compound 138, 1,1,1,3,3,3-hexafluoro-2-(4′-((4-(pyridin-4-ylmethyl)piperazin-1-yl)sulfonyl)-[1,1′-biphenyl]-4-yl)propan-2-ol], at GST-RORγ, the remaining activity at 1 µM was found to be 68%.
Same read-out and setting: in the case of `OC(c1ccc(-c2ccc3c(c2)CCC3N2CCN(Cc3ccncc3)CC2)cc1)(C(F)(F)F)C(F)(F)F` (stereo not shown) [Compound 139, 1,1,1,3,3,3-hexafluoro-2-(4-(1-(4-(pyridin-4-ylmethyl)piperazin-1-yl)-2,3-dihydro-H I-inden-5-yl)phenyl)propan-2-ol] it was 59%.
For the compound `CC(c1ccc(-c2ccc(C(O)(C(F)(F)F)C(F)(F)F)cc2)cc1)N1CCN(Cc2ccncc2)CC1` (stereo not shown) [Compound 140, 1,1,1,3,3,3-hexafluoro-2-(4′-(1-(4-(pyridin-4-ylmethyl)piperazin-1-yl)ethyl)-[1,1′-biphenyl]-4-yl)propan-2-ol], on GST-RORγ, the remaining activity at 1 µM was 74%.
Same read-out and setting: the same measure for `CCC(c1ccc(-c2ccc(C(O)(C(F)(F)F)C(F)(F)F)cc2)cc1)N1CCN(Cc2ccncc2)CC1` (stereo not shown) [Example 141, 1,1,1,3,3,3-hexafluoro-2-(4′-(1-(4-(pyridin-4-ylmethyl)piperazin-1-yl)propyl)-[1,1′-biphenyl]-4-yl)propan-2-ol]: 74%; for `CCCCC(c1ccc(-c2ccc(C(O)(C(F)(F)F)C(F)(F)F)cc2)cc1)N1CCN(Cc2ccncc2)CC1` (stereo not shown) [Example 142, 1,1,1,3,3,3-hexafluoro-2-(4′-(1-(4-(pyridin-4-ylmethyl)piperazin-1-yl)pentyl)-[1,1′-biphenyl]-4-yl)propan-2-ol]: 73%.
Same read-out and setting: in the case of `CC(Cc1ccc(-c2ccc(C(O)(C(F)(F)F)C(F)(F)F)cc2)cc1)N1CCN(Cc2ccncc2)CC1` (stereo not shown) [Example 143, 1,1,1,3,3,3-hexafluoro-2-(4′-(2-(4-(pyridin-4-ylmethyl)piperazin-1-yl)propyl)-[1,1′-biphenyl]-4-yl)propan-2-ol] it was 74%; in that of `OC(c1ccc(-c2ccc(CCN3CCN(Cc4ccncc4)CC3)cc2)cc1)(C(F)(F)F)C(F)(F)F` [Example 144, 1,1,1,3,3,3-hexafluoro-2-(4′-(2-(4-(pyridin-4-ylmethyl)piperazin-1-yl)ethyl)-[1,1′-biphenyl]-4-yl)propan-2-ol], 61%.
Turning to `O=S(=O)(c1cccs1)N1CCN(Cc2ccc(-c3ccc(C(O)(C(F)(F)F)C(F)(F)F)cc3)cc2)CC1` [Example 145, 1,1,1,3,3,3-Hexafluoro-2-(4′-((4-(thiophen-2-ylsulfonyl)piperazin-1-yl)methyl)-[1,1′-biphenyl]-4-yl)propan-2-ol], the “RORγ repression, fold change over DMSO” value at RORγ is listed as 3.0 fold change over DMSO. Also, the “VP16 repression, fold change over DMSO” value with VP16 is recorded as 3.0 fold change over DMSO.
In the case of `O=S(=O)(c1ccc(C(F)(F)F)cc1)N1CCN(Cc2ccc(-c3ccc(C(O)(C(F)(F)F)C(F)(F)F)cc3)cc2)CC1` [Example 146, 1,1,1,3,3,3-Hexafluoro-2-(4′-((4-((4-(trifluoromethyl)phenyl)sulfonyl)piperazin-1-yl)methyl)-[1,1′-biphenyl]-4-yl)propan-2-ol], the “RORγ repression, fold change over DMSO” value at RORγ was found to be 0.9 fold change over DMSO. The “VP16 repression, fold change over DMSO” value in the assay with VP16 came out at 0.7 fold change over DMSO.
In the same order, the values of `O=S(=O)(c1ccc(CBr)cc1)N1CCN(Cc2ccc(-c3ccc(C(O)(C(F)(F)F)C(F)(F)F)cc3)cc2)CC1` [Example 147, 2-(4′-((4-((4-(Bromomethyl)phenyl)sulfonyl)piperazin-1-yl)methyl)-[1,1′-biphenyl]-4-yl)-1,1,1,3,3,3-hexafluoropropan-2-ol] are 0.5 fold change over DMSO and 0.5 fold change over DMSO.
In the same order, the values of `Cc1ccc([N+](=O)[O-])cc1S(=O)(=O)N1CCN(Cc2ccc(-c3ccc(C(O)(C(F)(F)F)C(F)(F)F)cc3)cc2)CC1` [Example 148, 1,1,1,3,33-Hexafluoro-2-(4′-((4-((2-methyl-5-nitrophenyl)sulfonyl)piperazin-1-yl)methyl)-[1,1′-biphenyl]-4-yl)propan-2-ol] are 0.4 fold change over DMSO and 1.0 fold change over DMSO.
In the same order, the values of `O=[N+]([O-])c1ccc(S(=O)(=O)N2CCN(Cc3ccc(-c4ccc(C(O)(C(F)(F)F)C(F)(F)F)cc4)cc3)CC2)cc1` [Example 149, 1,1,1,3,3,3-Hexafluoro-2-(4′-((4-((4-nitrophenyl)sulfonyl)piperazin-1-yl)methyl)-[1,1′-biphenyl]-4-yl)propan-2-ol] are 0.5 fold change over DMSO and 0.7 fold change over DMSO.
With `O=C(OCc1ccccc1)N1CCN(Cc2ccc(-c3ccc(C(O)(C(F)(F)F)C(F)(F)F)cc3)cc2)CC1` [Example 150, Benzyl 4-((4′-(1,1,1,3,3,3-hexafluoro-2-hydroxypropan-2-yl)-[1,1′-biphenyl]-4-yl)methyl)piperazine-1-carboxylate], the “RORγ repression, fold change over DMSO” value on RORγ stood at 0.5 fold change over DMSO. In addition, the “VP16 repression, fold change over DMSO” value with VP16 is recorded as 0.9 fold change over DMSO.
On to `O=C(Oc1ccc([N+](=O)[O-])cc1)N1CCN(Cc2ccc(-c3ccc(C(O)(C(F)(F)F)C(F)(F)F)cc3)cc2)CC1` [Example 151, 4-Nitrophenyl 4-((4′-(1,1,1,3,3,3-hexafluoro-2-hydroxypropan-2-yl)-[1,1′-biphenyl]-4-yl)methyl)piperazine-1-carboxylate], for which the “RORγ repression, fold change over DMSO” value on RORγ was 0.6 fold change over DMSO. Also, the “VP16 repression, fold change over DMSO” value with VP16 was 0.6 fold change over DMSO.
`OC(c1ccc(-c2ccc(CN3CCN(Cc4ccc5cc[nH]c5c4)CC3)cc2)cc1)(C(F)(F)F)C(F)(F)F` [Example 154, 2-(4′-((4-((1H-indol-6-yl)methyl)piperazin-1-yl)methyl)-[1,1′-biphenyl]-4-yl)-1,1,1,3,3,3-hexafluoropropan-2-ol]: the remaining activity at 1 µM on GST-RORγ worked out at 90%.
On the same count and under the same terms, the same measure for `OC(c1ccc(-c2ccc(CN3CCN(Cc4ccc5nc[nH]c5c4)CC3)cc2)cc1)(C(F)(F)F)C(F)(F)F` [Example 155, 2-(4′-((4-((1H-benzo[d]imidazol-6-yl)methyl)piperazin-1-yl)methyl)-[1,1′-biphenyl]-4-yl)-1,1,1,3,3,3-hexafluoropropan-2-ol]: 100%; for `CC(C)Oc1cc(C(O)(C(F)(F)F)C(F)(F)F)ccc1-c1ccc(CN2CCN(Cc3ccncc3)CC2)cc1` [Example 156, 1,1,1,3,3,3-hexafluoro-2-(2-isopropoxy-4′-((4-(pyridin-4-ylmethyl)piperazin-1-yl)methyl)-[1,1′-biphenyl]-4-yl)propan-2-ol]: 75%.
